In patent publication US10440955B2, “Methods comprising a biocidal polyamine” (Curza Global, LLC, priority 2013, dated 2019):
Values after ≈ are worked out from the molar mass of the structure shown. Where a name gives a salt, the structure may show the parent alone. Read-outs that look alike come from different tables or passages of the source.

Tests used:
P. aeruginosa = test: MIC, 96-well CAMHB, 10^5 to 10^2 CFU/mL in 24 hours; assay type: cell-based, Pseudomonas aeruginosa; conditions: for MIC: Pseudomonas aeruginosa
Experimental: (§1) To determine the MIC of polyamine compounds, the protocol described herein was used.
(§2) In brief, a 0.5 McFarland of each bacterial isolate was made. A 0.5 McFarland is a measure of turbidity in a liquid sample that contains approximately 1×10^∧8 CFU/mL. The 0.5 McFarland standard was diluted in cation adjusted Mueller Hinton Broth (CAMHB), and 50 μL of broth were added to a well of a 96-well plate. In addition, 50 μL of CAMHB that contained a desired concentration of antimicrobial were also added to the well for a final volume of 100 μL and a final concentration of approximately 5×10^4 CFU/well (which equated to approximately 5×10^5 CFU/mL). Each well contained a desired amount of polyamine compound in order to experimentally determine the MIC. Each 96-well plate was incubated at 37° C. for 24 hours. The contents of each well were plated on tryptic soy agar (TSA). TSA plates were incubated for 37° C. for 24 hours after which the number of CFU were counted and used to calculate the CFU/mL that remained after exposure to varying concentrations of compound. This procedure was repeated n=8 times for each concentration of antimicrobial.

MRSA = test: as above; assay type: cell-based, Staphylococcus aureus; conditions: for MIC: Staphylococcus aureus, MRSA, read-out: MIC (MRSA)
Experimental: as §1
as §2, with “antimicrobial. […]” for “antimicrobial.”

L-929 cells (ATCC CCL-1) = test: Minimal Essential Media (MEM) Elution cytotoxicity test; assay type: cell-based; conditions: Table 10A
Experimental: Summary: The Minimal Essential Media (MEM) Elution test was designed to determine the cytotoxicity of extractable substances. The test article was added to cell monolayers and incubated. The cell monolayers were examined and scored based on the degree of cellular destruction.
Acceptance Criteria: The United States Pharmacopeia & National Formulary (USP <87>) states that the test article meets the requirements, or receives a passing score (Pass) if the reactivity grade is not greater than grade 2 or a mild reactivity.
Acceptance criteria were based upon the negative and media controls receiving “0” reactivity grades and positive controls receiving a 3-4 reactivity grades (moderate to severe).
The cell monolayers were examined microscopically. The wells were scored as to the degree of discernable morphological cytotoxicity on a relative scale of 0 to 4:
The results from the three wells were averaged to give a final cytotoxicity score.
[…] This initial concentration was then diluted 1: 2, 1:4, 1:8, and 1:16. Multiple well cell culture plates were seeded with a verified quantity of industry standard L-929 cells (ATCC CCL-1) and incubated until approximately 80% confluent. The test articles and control extracts were added to the cell monolayers in triplicate. The cells were incubated at 37±1° C. with 5±1% CO2 for 48±3 hours.

[1] = read-out: MIC (P. aeruginosa), Table 5
[2] = Table 5, read-out: MIC (P. aeruginosa)

| MIC (MRSA; Table 5) [µM] | MIC (P. aeruginosa; [2]) [µM] | SMILES | MIC (P. aeruginosa; [1]) [µM] | MIC (MRSA) [µM] | also measured |
| --- | --- | --- | --- | --- | --- |
| – | – | NCCCCNCc1ccccc1 [CZ-3, N^1-benzylbutane-1,4-diaminium chloride] | > 100 | – | – |
| – | – | NCCCCCCCCCCCCNCc1ccccc1 [CZ-5, N^1-benzyldodecane-1,12-diamine, hydrochloride salt] | – | > 100 | – |
| – | – | NCCCCCCNCc1ccccc1 [CZ-9, N^1-benzylhexane-1,6-diamine, hydrochloride salt] | – | > 100 | – |
| – | – | CN(C)CCCCCCCCCCCCN(C)Cc1ccccc1 [CZ-10, N^1-Benzyl-N^1,N^12,N^12-trimethyldodecane-1,12-diamine, hydrochloride salt] | – | > 100 | – |
| > 100 | – | CC(C)(C)OC(=O)NCCCNCCCNCc1cccc(CNCCCNCCCNC(=O)OC(C)(C)C)c1 [CZ-27, di-tert-butyl (((((1,3-phenylenebis(methylene))bis(azanediyl))bis(propane-3,1-diyl))bis(azanediyl))bis(propane-3,1-diyl))dicarbamate] | – | – | – |
| < 50 | < 50 | CC(C)(C)OC(=O)NCCCNCCCNCc1cc(CNCCCNCCCN)cc(CNCCCNCCCN)c1 [CZ-51, tert-butyl (3-((3-((3,5-bis(((3-((3-aminopropyl)amino)propyl)amino)methyl)-benzyl)amino)propyl)amino)propyl)carbamate] | – | – | – |
| – | – | NCCCNCCCNCc1cc(CO)cc(CNCCCNCCCN)c1 [CZ-53, (3,5-bis(((3-((3-aminopropyl)amino)propyl)amino)methyl)phenyl)-methanol, hydrochloride salt] | – | – | MIC (P. aeruginosa) (P. aeruginosa; Table 5): ++ to +++ |
| – | – | CC(C)Oc1ccc(-c2cc(CNCCCNCCCN)cc(CNCCCNCCCN)c2)cc1CNCCCNCCCN [CZ-66, N^1,N^1′,N^1″-((4′-isopropoxy-[1,1′-biphenyl]-3,3′,5-triyl)tris(methylene))-tris(N^3-(3-aminopropyl)propane-1,3-diamine), hydrochloride salt] | – | – | Results Pass/Fail (L-929 cells (ATCC CCL-1); 25 μg/mL): Fail (a numerical grade greater than 2 is considered a cytotoxic effect, or a failing score (Fail)); Results Pass/Fail (L-929 cells (ATCC CCL-1); dilution 1:2 of 25 μg/mL): Fail (a numerical grade greater than 2 is considered a cytotoxic effect, or a failing score (Fail)); Results Pass/Fail (L-929 cells (ATCC CCL-1); dilution 1:4 of 25 μg/mL): Pass (receives a passing score (Pass) if the reactivity grade is not greater than grade 2 or a mild reactivity); Results Pass/Fail (L-929 cells (ATCC CCL-1); dilution 1:8 of 25 μg/mL): Pass (receives a passing score (Pass) if the reactivity grade is not greater than grade 2 or a mild reactivity); Results Pass/Fail (L-929 cells (ATCC CCL-1); dilution 1:16 of 25 μg/mL): Pass (receives a passing score (Pass) if the reactivity grade is not greater than grade 2 or a mild reactivity) |
| – | – | NCCCNCCCNCc1cc(CNCCCNCCCN)cc(-c2cc(C(F)(F)F)cc(C(F)(F)F)c2)c1 [CZ-70, N^1,N^1′-((3′,5′-bis(trifluoromethyl)-[1,1′-biphenyl]-3,5-diyl)bis(methylene))bis(N^3-(3-aminopropyl)propane-1,3-diamine), hydrochloride salt] | < 50 | < 50 | – |
| – | – | NCCCNCCCNCc1cc(CNCCCNCCCN)cc(Oc2ccccc2)c1 [CZ-74, N^1,N^1′-((5-phenoxy-1,3-phenylene)bis(methylene))bis(N^3-(3-aminopropyl)propane-1,3-diamine), hydrochloride salt] | < 50 | < 50 | – |
| – | – | NCCCNCCCNCc1cc(CNCCCNCCCN)cc(-c2ccc(F)cc2)c1 [CZ-75, N^1,N^1′-((4′-fluoro-[1,1′-biphenyl]-3,5-diyl)bis(methylene))bis(N3-(3-aminopropyl)propane-1,3-diamine), hydrochloride salt] | < 50 | < 50 | – |
| – | – | CCCCOc1cc(CNCCCNCCCN)cc(CNCCCNCCCN)c1 [CZ-76, N^1,N^1′-((5-butoxy-1,3-phenylene)bis(methylene))bis(N3-(3-aminopropyl)propane-1,3-diamine), hydrochloride salt] | 50 to 100 | < 50 | – |
| – | – | NCCCNCc1cc(CNCCCN)cc(-c2ccccc2)c1 [CZ-77, N^1,N^1′-([1,1′-biphenyl]-3,5-diylbis(methylene))bis(propane-1,3-diamine), hydrochloride salt] | < 50 | < 50 | – |
| < 50 | < 50 | NCCCNCCCNCc1cc(O)cc(CNCCCNCCCN)c1 [CZ-87, 3,5-bis(((3-((3-aminopropyl)amino)propyl)amino)methyl)phenol] | – | – | – |
| < 50 | < 50 | NCCCNCCCNCc1cc(CNCCCNCCCN)cc(-c2ccc(C(=O)N3CCCCC3)cc2)c1 [CZ-88, (3′,5′-Bis(((3-((3-aminopropyl)amino)propyl)amino)methyl)-[1,1′-biphenyl]-4-yl) (piperidin-1-yl)methanone] | – | – | – |
| < 50 | < 50 | O=C1NCCCN1CCCNCc1cc(CNCCCN2CCCNC2=O)cc(-c2ccccc2)c1 [CZ-89, 1,1′-((([1,1′-biphenyl]-3,5diylbis(methylene))bis(azanediyl))bis(propane-3,1-diyl))bis(tetrahydropyrimidin-2(1H)-one)] | – | – | – |
| – | – | CCC(CC)COc1cc(CNCCCNCCCNCC(C)C)cc(CNCCCNCCCNCC(C)C)c1 [CZ-91, N^1,N^1′-((5-(2-ethylbutoxy)-1,3-phenylene)bis(methylene))bis(N^3-(3-(isobutylammonio)propyl)propane-1,3-diaminium) chloride] | < 50 | < 50 | – |
| < 50 | < 50 | CC(C)Oc1cc(CNCCCNCCCN)cc(CNCCCNCCCN)c1 [CZ-93, N^1,N^1′-((5-isopropoxy-1,3-phenylene)bis(methylene))bis(N^3-(3-aminopropyl)propane-1,3-diamine)] | – | – | – |
| < 50 | < 50 | c1ccc(CNCCCNCCCNCc2cc(CNCCCNCCCNCc3ccccc3)cc(-c3ccccc3)c2)cc1 [CZ-94, N^1,N^1′-([1,1′-biphenyl]-3,5-diylbis(methylene))bis(N^3-(3-(benzylamino)propyl)propane-1,3-diamine)] | – | – | – |
| – | – | NCCCNCCCNCc1cc(CNCCCNCCCN)cc(OCc2ccccc2)c1 [CZ-95, N^1,N^1′-((5-(Benzyloxy)-1,3-phenylene)bis(methylene))bis(N^3-(3-aminopropyl)propane-1,3-diamine), hydrochloride salt] | < 50 | < 50 | – |
| < 50 | < 50 | c1cc(CNCCCNCCCNCC2CCCCC2)cc(CNCCCNCCCNCC2CCCCC2)c1 [CZ-97, N^1,N^1′-(1,3-phenylenebis(methylene))bis(N^3-(3-((cyclohexylmethyl)-amino)propyl)propane-1,3-diamine)] | – | – | – |
| – | – | NCCCNCCCNCc1cc(CNCCCNCCCN)cc(OCC2CCCCC2)c1 [CZ-101, N^1,N^1′-((5-(cyclohexylmethoxy)-1,3-phenylene)bis(methylene))bis(N^3-(3-aminopropyl)propane-1,3-diamine), hydrochloride salt] | < 50 | < 50 | – |
| < 50 | 50 to 100 (≈ 27.8 to 55.7 µg/mL) | CC(C)CNCCCNCCCNCc1cc(CNCCCNCCCNCC(C)C)cc(-c2cnn(C)c2)c1 [CZ-102, N^1,N^1′-((5-(1-methyl-1H-pyrazol-4-yl)-1,3-phenylene)bis(methylene))bis(N3-(3-(isobutylamino)propyl)propane-1,3-diamine)] | – | – | – |
| < 50 | – | CC(C)CNCCCNCCCNCc1cc(CNCCCNCCCNCC(C)C)cc(OC2CCCCC2)c1 [CZ-104, N^1,N^1′-((5-(cyclohexyloxy)-1,3-phenylene)bis(methylene))bis(N^3-(3-(isobutylamino)propyl)propane-1,3-diamine)] | – | – | MIC (P. aeruginosa) (P. aeruginosa; Table 5): ++ to +++ |

| SMILES | MIC (MRSA; Table 5) [µM] | MIC (P. aeruginosa; [2]) [µM] | MIC (P. aeruginosa; [1]) [µM] | MIC (MRSA) [µM] | also measured |
| --- | --- | --- | --- | --- | --- |
| NCCCNCCCNCc1cccc(CNCCCNCCCN)c1 [CZ-25 (Bz)] | < 50 | – | – | – | – |
| NCCCNC(=O)c1cccc(C(=O)NCCCN)c1 [CZ-41] | > 100 | – | – | – | – |
| NCCCNCCCNCc1cccc(CNCCCNCCCN)c1 [CZ-42] | – | 50 to 100 (≈ 18.2 to 36.5 µg/mL) | – | – | MIC (MRSA) (MRSA; Table 5): ++ (++ = 100 μM ≥ MIC ≥ 50 μM. MIC results of “>n μM” or “<n μM” will also be designated as ++ if 100 ≥ n ≥ 50.) |
